Measurements reported in patent US20220315554A1, “COMPOUNDS COMPRISING A […] LIGAND AND USE THEREOF” (priority 2019, published 2022).

Assays:
Assay in all cases: biochemical
proteases [1] = target: T1, proteases (Homo sapiens, UniProt P42574); settings: Caspase-3; reference at 100 nM
T1 construct: BPS Biosciences (contract assay)

proteases [2] = target: T2, proteases (Homo sapiens, UniProt P55210); settings: Caspase-7; reference at 1 μM
T2 construct: BPS Biosciences (contract assay)

proteases [3] = target: T3, proteases (Homo sapiens, UniProt O60911); settings: Cathepsin V; reference at 100 nM
T3 construct: BPS Biosciences (contract assay)
T3 sequence (O60911 114-334): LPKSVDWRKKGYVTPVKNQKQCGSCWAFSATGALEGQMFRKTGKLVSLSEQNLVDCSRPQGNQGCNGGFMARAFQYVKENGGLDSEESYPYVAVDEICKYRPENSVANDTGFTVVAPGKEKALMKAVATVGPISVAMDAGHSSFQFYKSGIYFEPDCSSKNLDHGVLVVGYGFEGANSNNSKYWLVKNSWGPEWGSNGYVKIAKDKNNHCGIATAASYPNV

proteases [4] = target: T4, proteases (Homo sapiens, UniProt P25774); settings: Cathepsin S; reference at 100 nM
T4 construct: BPS Biosciences (contract assay)

proteases [5] = target: proteases (Homo sapiens, UniProt P07858); settings: Cathepsin B; reference at 100 nM
proteases [6] = target: T5, proteases (Homo sapiens, UniProt P07711); settings: Cathepsin L; reference at 1 μM
T5 construct: BPS Biosciences (contract assay)
T5 sequence (P07711 114-333): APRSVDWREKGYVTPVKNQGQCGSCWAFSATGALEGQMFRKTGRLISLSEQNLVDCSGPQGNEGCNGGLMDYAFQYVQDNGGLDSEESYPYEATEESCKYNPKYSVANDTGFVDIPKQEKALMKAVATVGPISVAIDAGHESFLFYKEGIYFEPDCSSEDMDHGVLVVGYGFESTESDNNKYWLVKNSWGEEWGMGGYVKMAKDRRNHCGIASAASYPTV

proteases [7] = target: T6, proteases (Homo sapiens, UniProt Q6V1X1); settings: DPP8; reference at 200 μM
T6 construct: BPS Biosciences (contract assay)
T6 sequence (Q6V1X1 whole entry): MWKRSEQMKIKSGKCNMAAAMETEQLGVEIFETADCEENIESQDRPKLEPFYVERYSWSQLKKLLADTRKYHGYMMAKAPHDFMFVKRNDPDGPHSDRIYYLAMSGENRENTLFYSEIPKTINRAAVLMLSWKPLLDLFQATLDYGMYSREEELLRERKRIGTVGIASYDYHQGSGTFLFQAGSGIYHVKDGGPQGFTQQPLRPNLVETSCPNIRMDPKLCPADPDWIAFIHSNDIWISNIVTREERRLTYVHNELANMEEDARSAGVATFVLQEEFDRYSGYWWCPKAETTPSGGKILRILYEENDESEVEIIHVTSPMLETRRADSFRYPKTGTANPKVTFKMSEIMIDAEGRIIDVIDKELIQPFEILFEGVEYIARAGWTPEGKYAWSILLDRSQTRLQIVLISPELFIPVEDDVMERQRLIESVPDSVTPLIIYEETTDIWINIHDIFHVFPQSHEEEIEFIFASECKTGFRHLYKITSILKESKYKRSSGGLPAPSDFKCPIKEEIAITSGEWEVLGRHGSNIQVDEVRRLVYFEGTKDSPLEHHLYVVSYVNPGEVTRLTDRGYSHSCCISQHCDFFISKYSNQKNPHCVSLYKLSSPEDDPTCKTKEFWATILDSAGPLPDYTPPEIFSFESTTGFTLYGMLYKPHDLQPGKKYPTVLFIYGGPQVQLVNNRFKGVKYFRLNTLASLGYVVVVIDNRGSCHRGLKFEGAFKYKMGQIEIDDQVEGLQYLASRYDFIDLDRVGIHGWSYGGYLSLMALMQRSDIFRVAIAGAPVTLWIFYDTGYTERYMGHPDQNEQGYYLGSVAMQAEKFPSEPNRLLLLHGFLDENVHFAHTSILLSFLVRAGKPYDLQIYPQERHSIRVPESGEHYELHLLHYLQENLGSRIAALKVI

proteases [8] = target: proteases (Homo sapiens, UniProt Q9UHL4); settings: DPP7; reference at 200 μM
proteases [9] = target: T7, proteases (Homo sapiens, UniProt P03956); settings: Matrix metalloprotease1; reference at 1 μM
T7 construct: BPS Biosciences (contract assay)

proteases [10] = target: T8, proteases (Homo sapiens, UniProt P14780, Q279R); settings: 0.1 µM
T8 construct: BPS Biosciences (contract assay)
T8 sequence (P14780 94-707 Q279R): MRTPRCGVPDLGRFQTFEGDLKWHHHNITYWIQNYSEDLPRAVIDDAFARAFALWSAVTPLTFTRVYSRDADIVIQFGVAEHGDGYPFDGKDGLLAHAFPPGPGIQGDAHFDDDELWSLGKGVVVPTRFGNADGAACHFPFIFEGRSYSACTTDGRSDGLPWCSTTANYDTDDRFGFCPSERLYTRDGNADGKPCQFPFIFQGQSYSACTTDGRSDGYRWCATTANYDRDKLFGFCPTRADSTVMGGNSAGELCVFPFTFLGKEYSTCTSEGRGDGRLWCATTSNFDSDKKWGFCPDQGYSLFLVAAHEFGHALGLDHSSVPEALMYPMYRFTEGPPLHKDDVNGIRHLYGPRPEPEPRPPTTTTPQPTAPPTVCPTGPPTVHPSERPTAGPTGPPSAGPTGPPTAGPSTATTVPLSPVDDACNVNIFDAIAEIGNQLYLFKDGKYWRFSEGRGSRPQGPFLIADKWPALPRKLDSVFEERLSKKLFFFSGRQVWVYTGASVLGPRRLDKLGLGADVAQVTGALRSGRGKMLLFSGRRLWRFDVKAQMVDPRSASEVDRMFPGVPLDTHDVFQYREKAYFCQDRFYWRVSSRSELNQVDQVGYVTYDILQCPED

proteases [11] = target: T9, proteases (Homo sapiens, UniProt P08253); settings: Matrix metalloprotease 2; reference at 100 nM
T9 construct: BPS Biosciences (contract assay)

proteases [12] = target: T10, proteases (Homo sapiens, UniProt Q12884); settings: FAP; reference at 100 nM
T10 construct: BPS Biosciences (contract assay)
T10 sequence (Q12884 whole entry): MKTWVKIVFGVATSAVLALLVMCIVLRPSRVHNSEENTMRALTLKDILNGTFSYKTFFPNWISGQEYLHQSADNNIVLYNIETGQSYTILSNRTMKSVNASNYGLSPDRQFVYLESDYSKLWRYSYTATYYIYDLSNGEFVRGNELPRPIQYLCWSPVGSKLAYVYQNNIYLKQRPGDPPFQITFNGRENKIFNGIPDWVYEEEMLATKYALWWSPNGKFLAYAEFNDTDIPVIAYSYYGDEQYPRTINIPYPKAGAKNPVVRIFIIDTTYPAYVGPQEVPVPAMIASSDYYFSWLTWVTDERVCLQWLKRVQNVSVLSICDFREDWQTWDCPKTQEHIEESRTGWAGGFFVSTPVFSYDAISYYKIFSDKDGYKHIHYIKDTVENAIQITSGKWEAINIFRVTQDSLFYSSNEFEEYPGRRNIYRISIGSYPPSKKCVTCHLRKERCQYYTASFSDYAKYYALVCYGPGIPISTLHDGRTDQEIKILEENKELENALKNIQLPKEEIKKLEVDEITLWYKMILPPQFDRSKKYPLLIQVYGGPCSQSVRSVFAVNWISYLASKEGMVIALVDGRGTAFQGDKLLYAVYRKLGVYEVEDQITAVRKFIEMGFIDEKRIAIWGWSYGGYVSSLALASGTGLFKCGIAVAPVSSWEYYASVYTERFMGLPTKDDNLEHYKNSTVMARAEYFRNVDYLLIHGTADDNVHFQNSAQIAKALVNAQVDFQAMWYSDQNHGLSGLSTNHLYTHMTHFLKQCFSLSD

proteases [13] = target: T11, proteases (Homo sapiens, UniProt Q14790); settings: Caspase-8; reference at 100 nM
T11 construct: BPS Biosciences (contract assay)

proteases [14] = target: T12, proteases (Homo sapiens, UniProt P55212); settings: Caspase-6; reference at 1 μM
T12 construct: BPS Biosciences (contract assay)
T12 sequence (P55212 24-293): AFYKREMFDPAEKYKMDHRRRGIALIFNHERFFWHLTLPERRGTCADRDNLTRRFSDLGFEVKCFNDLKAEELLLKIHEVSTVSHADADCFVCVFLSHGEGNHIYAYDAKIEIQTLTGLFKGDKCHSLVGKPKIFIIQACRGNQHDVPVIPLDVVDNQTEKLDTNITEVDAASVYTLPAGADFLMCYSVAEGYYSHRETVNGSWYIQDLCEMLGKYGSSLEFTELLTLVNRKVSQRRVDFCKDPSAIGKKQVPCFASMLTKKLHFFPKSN

proteases [15] = target: T13, proteases (Homo sapiens, UniProt Q9UBX1); settings: Cathepsin F; reference at 1 μM
T13 construct: BPS Biosciences (contract assay)
T13 sequence (Q9UBX1 271-484): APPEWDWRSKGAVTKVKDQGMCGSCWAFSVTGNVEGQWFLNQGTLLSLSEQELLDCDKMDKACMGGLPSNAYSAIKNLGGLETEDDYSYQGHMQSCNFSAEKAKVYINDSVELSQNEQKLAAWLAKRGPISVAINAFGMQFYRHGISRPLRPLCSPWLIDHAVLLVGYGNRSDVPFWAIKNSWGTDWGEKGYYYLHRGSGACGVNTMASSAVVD

proteases [16] = target: T14, proteases (Homo sapiens, UniProt O75604); settings: Ubiquitin carboxy-terminal hydrolase 2; reference at 1 μM
T14 construct: BPS Biosciences (contract assay)

proteases [17] = target: T15, proteases (Homo sapiens, UniProt P40818); settings: Ubiquitin carboxy-terminal hydrolase 8; reference at 1 μM
T15 construct: BPS Biosciences (contract assay)

proteases [18] = target: T16, proteases (Homo sapiens, UniProt Q93009); settings: Ubiquitin carboxy-terminal hydrolase 7; reference at 1 μM
T16 construct: BPS Biosciences (contract assay)

proteases [19] = target: T17, proteases (Homo sapiens, UniProt Q14694); settings: Ubiquitin carboxy-terminal hydrolase 10; reference at 1 μM
T17 construct: BPS Biosciences (contract assay)

proteases [20] = target: T18, proteases (Homo sapiens, UniProt P15374); settings: Ubiquitin carboxy-terminal hydrolase L3; reference at 10 nM
T18 construct: BPS Biosciences (contract assay)

proteases [21] = target: T19, proteases (Homo sapiens, UniProt P54578); settings: Ubiquitin carboxy-terminal hydrolase 14; reference at 100 nM
T19 construct: BPS Biosciences (contract assay)
T19 sequence (P54578 whole entry): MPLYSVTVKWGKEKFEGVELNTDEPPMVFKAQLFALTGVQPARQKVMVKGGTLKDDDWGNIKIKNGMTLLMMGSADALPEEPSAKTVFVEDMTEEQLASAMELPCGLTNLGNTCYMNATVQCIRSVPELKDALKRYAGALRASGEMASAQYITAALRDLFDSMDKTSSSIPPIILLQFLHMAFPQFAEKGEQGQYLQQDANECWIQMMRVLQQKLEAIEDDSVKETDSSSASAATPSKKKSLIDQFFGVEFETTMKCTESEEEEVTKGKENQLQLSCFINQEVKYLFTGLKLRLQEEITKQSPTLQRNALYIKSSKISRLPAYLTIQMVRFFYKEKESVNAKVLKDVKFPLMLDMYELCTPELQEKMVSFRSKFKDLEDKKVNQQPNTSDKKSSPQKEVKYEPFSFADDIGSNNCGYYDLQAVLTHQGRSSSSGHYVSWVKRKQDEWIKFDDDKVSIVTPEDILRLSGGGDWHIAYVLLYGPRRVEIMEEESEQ

proteases [22] = target: T20, proteases (Homo sapiens, UniProt P09936); settings: Ubiquitin carboxy-terminal hydrolase L1; reference at 100 nM
T20 construct: BPS Biosciences (contract assay)

proteases [23] = target: T21, proteases (Homo sapiens, UniProt Q8N6M0); settings: Deubiquitinase OTUD6B; reference at 1 μM
T21 construct: BPS Biosciences (contract assay)
T21 sequence (Q8N6M0 whole entry): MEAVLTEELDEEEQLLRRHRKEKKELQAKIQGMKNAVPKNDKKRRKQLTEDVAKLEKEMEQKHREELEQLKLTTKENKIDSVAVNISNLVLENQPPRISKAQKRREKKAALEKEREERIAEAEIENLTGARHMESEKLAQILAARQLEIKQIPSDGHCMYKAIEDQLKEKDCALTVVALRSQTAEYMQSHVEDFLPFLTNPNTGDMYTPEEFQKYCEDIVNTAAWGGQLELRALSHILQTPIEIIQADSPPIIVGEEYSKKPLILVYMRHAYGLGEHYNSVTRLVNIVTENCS

proteases [24] = target: T22, proteases (Homo sapiens, UniProt P54252); settings: Ataxin3; reference at 10 μM
T22 construct: BPS Biosciences (contract assay)
T22 sequence (P54252 whole entry): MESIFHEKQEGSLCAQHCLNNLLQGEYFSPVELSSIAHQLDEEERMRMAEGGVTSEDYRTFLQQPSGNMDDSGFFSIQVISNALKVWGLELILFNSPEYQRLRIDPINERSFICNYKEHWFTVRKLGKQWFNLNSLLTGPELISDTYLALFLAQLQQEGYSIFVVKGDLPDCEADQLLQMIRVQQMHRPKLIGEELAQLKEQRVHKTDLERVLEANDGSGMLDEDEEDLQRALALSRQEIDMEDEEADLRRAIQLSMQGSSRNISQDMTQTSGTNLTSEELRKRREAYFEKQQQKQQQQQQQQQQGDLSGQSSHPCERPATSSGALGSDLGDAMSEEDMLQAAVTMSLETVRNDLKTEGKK

proteases [25] = target: T23, proteases (Homo sapiens, UniProt P45974); settings: Ubiquitin carboxy-terminal hydrolase 5; reference at 1 μM
T23 construct: BPS Biosciences (contract assay)

T2 sequence (P55210 whole entry): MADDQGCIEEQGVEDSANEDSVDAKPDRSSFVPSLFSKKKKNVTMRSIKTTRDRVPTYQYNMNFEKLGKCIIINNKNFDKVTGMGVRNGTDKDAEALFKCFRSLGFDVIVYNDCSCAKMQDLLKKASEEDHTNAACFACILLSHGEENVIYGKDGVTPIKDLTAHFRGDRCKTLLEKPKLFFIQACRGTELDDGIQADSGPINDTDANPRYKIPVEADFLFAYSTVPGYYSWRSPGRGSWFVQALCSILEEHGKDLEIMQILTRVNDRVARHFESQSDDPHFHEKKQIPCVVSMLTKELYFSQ
T1 sequence (P42574 29-277): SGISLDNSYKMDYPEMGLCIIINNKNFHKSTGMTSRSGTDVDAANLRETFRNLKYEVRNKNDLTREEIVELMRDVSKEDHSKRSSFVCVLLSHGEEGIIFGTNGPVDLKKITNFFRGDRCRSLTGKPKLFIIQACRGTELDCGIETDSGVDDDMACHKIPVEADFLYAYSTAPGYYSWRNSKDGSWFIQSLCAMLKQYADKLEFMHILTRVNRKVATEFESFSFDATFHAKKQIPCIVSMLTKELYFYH

Compound: COC[C@@H]1CCCN1S(=O)(=O)c1ccc2c(c1)C(=O)C(=O)N2 [Caspase 3/7 Inhibitor I]
- Percentage inhibition (%) Reference (proteases [1]): 89%
- Percentage inhibition (%) Reference (proteases [2]): 92%

Compound: CC(C)C[C@H](NC(=O)[C@H]1O[C@@H]1C(=O)O)C(=O)NCCCCN=C(N)N [E-64]
- Percentage inhibition (%) Reference (proteases [3]): 83%
- Percentage inhibition (%) Reference (proteases [4]): 91%
- Percentage inhibition (%) Reference (proteases [5]): 97%
- Percentage inhibition (%) Reference (proteases [6]): 97%

Compound: N#Cc1ccc(NCCNCC(=O)N2N=CCC2C#N)nc1 (stereo not shown) [KR62436]
- Percentage inhibition (%) Reference (proteases [7]): 96%
- Percentage inhibition (%) Reference (proteases [8]): 83%

Compound: COc1ccc(S(=O)(=O)N(CC(=O)NO)CC(C)C)cc1 [NNGH]
- Percentage inhibition (%) Reference (proteases [9]): 87%
- Percentage inhibition (%) Reference (proteases [10]): 92%
- Percentage inhibition (%) Reference (proteases [11]): 95%

Compound: N#C[C@@H]1CC(F)(F)CN1C(=O)CNC(=O)c1ccnc2ccccc12 [SP-13786]
- Percentage inhibition (%) Reference (proteases [12]): 100%

Compound: Caspase 8 Inhibitor I
- Percentage inhibition (%) Reference (proteases [13]): 87%
- Percentage inhibition (%) Reference (proteases [14]): 94%

Compound: Cystatin C
- Percentage inhibition (%) Reference (proteases [15]): 74%

Compound: Ub-Aldehyde
- Percentage inhibition (%) Reference (proteases [16]): 91%
- Percentage inhibition (%) Reference (proteases [17]): 73%
- Percentage inhibition (%) Reference (proteases [18]): 95%
- Percentage inhibition (%) Reference (proteases [19]): 82%
- Percentage inhibition (%) Reference (proteases [20]): 95%
- Percentage inhibition (%) Reference (proteases [21]): 96%
- Percentage inhibition (%) Reference (proteases [22]): 92%
- Percentage inhibition (%) Reference (proteases [23]): 97%
- Percentage inhibition (%) Reference (proteases [24]): 77%
- Percentage inhibition (%) Reference (proteases [25]): 84%
